Measurements from ChEMBL document CHEMBL3046832, “Synthesis of some sulfonamides, disubstituted sulfonylureas or thioureas and some structurally related variants. A class of promising antitumor agents” (2007).

What was measured:
Assay type in all cases: functional
M14 = experiment: Cytotoxicity against Homo sapiens (human) M14 cells after 48 hr by SRB assay; settings: M14, 48 h
LOX IMVI = experiment: Cytotoxicity against Homo sapiens (human) LOXIMVI cells after 48 hr by SRB assay
U-251 = experiment: Cytotoxicity against Homo sapiens (human) U251 cells after 48 hr by SRB assay; settings: U-251, 48 h
Hs-578T = experiment: Cytotoxicity against Homo sapiens (human) Hs578T cells after 48 hr by SRB assay
MCF7 [1] = experiment: Cytotoxicity against Homo sapiens (human) MCF7 cells after 48 hr by SRB assay; settings: MCF7, 48 h
MDA-MB-231 = experiment: Cytotoxicity against Homo sapiens (human) MDA-MB-231 cells after 48 hr by SRB assay; settings: MDA-MB-231, 48 h
DU-145 = experiment: Cytotoxicity against Homo sapiens (human) DU145 cells after 48 hr by SRB assay; settings: DU-145, 48 h
UO-31 = experiment: Cytotoxicity against Homo sapiens (human) UO31 cells after 48 hr by SRB assay; settings: UO-31, 48 h
RXF 393 = experiment: Cytotoxicity against Homo sapiens (human) RXF393 cells after 48 hr by SRB assay; settings: RXF 393, 48 h
CAKI-1 = experiment: Cytotoxicity against Homo sapiens (human) Caki1 cells after 48 hr by SRB assay; settings: CAKI-1, 48 h
ACHN = experiment: Cytotoxicity against Homo sapiens (human) ACHN cells after 48 hr by SRB assay
786-0 = experiment: Cytotoxicity against Homo sapiens (human) 786-0 cells after 48 hr by SRB assay; settings: 786-0, 48 h
[2] = Cytotoxicity against Homo sapiens (human) NCI-ADR-RES cells after 48 hr by SRB assay
SK-OV-3 = experiment: Cytotoxicity against Homo sapiens (human) SKOV3 cells after 48 hr by SRB assay; settings: SK-OV-3, 48 h
OVCAR-8 = experiment: Cytotoxicity against Homo sapiens (human) OVCAR8 cells after 48 hr by SRB assay; settings: OVCAR-8, 48 h
OVCAR-5 = experiment: Cytotoxicity against Homo sapiens (human) OVCAR5 cells after 48 hr by SRB assay; settings: OVCAR-5, 48 h
OVCAR-3 = experiment: Cytotoxicity against Homo sapiens (human) OVCAR3 cells after 48 hr by SRB assay; settings: OVCAR-3, 48 h
UACC-62 = experiment: Cytotoxicity against Homo sapiens (human) UACC62 cells after 48 hr by SRB assay; settings: UACC-62, 48 h
UACC-257 = experiment: Cytotoxicity against Homo sapiens (human) UACC257 cells after 48 hr by SRB assay; settings: UACC-257, 48 h
SK-MEL-5 = experiment: Cytotoxicity against Homo sapiens (human) SK-MEL-5 cells after 48 hr by SRB assay; settings: SK-MEL-5, 48 h
SK-MEL-28 = experiment: Cytotoxicity against Homo sapiens (human) SK-MEL-28 cells after 48 hr by SRB assay; settings: SK-MEL-28, 48 h
[3] = Cytotoxicity against Homo sapiens (human) breast cancer cells after 48 hr by SRB assay; settings: Cancer cell lines
[4] = Cytotoxicity against Homo sapiens (human) renal cancer cells after 48 hr by SRB assay; settings: Cancer cell lines
[5] = Cytotoxicity against Homo sapiens (human) ovarian cancer cells after 48 hr by SRB assay; settings: Cancer cell lines
[6] = Cytotoxicity against Homo sapiens (human) melanoma cells after 48 hr by SRB assay; settings: Melanoma cell
[7] = Cytotoxicity against Homo sapiens (human) CNS cancer cells after 48 hr by SRB assay; settings: Cancer cell lines
[8] = Cytotoxicity against Homo sapiens (human) non-small cell lung cancer cells after 48 hr by SRB assay; settings: Cancer cell lines
NCI-H460 = experiment: Cytotoxicity against Homo sapiens (human) NCI-H460 cells assessed as cellular growth after 48 hr by Alamar blue assay; parameters: concentration or dose not given beside the values
SF-268 [9] = experiment: Cytotoxicity against Homo sapiens (human) SF268 cells assessed as cellular growth after 48 hr by Alamar blue assay; parameters: concentration or dose not given beside the values
BT-549 = experiment: Cytotoxicity against Homo sapiens (human) BT549 cells after 48 hr by SRB assay; settings: BT-549, 48 h
T47D = experiment: Cytotoxicity against Homo sapiens (human) T47D cells after 48 hr by SRB assay
SNB-19 = experiment: Cytotoxicity against Homo sapiens (human) SNB19 cells after 48 hr by SRB assay; settings: SNB-19, 48 h
SF-539 = experiment: Cytotoxicity against Homo sapiens (human) SF539 cells after 48 hr by SRB assay; settings: SF-539, 48 h
SF-295 = experiment: Cytotoxicity against Homo sapiens (human) SF295 cells after 48 hr by SRB assay; settings: SF-295, 48 h
SW-620 = experiment: Cytotoxicity against Homo sapiens (human) SW620 cells after 48 hr by SRB assay; settings: SW-620, 48 h
SF-268 [10] = experiment: Cytotoxicity against Homo sapiens (human) SF268 cells after 48 hr by SRB assay; settings: SF-268, 48 h
KM12 = experiment: Cytotoxicity against Homo sapiens (human) KM12 cells after 48 hr by SRB assay; settings: KM12, 48 h
HCT-15 = experiment: Cytotoxicity against Homo sapiens (human) HCT15 cells after 48 hr by SRB assay; settings: HCT-15, 48 h
HT-29 = experiment: Cytotoxicity against Homo sapiens (human) HT-29 cells after 48 hr by SRB assay; settings: HT-29, 48 h
NCI-H522 = experiment: Cytotoxicity against Homo sapiens (human) NCI-H522 cells after 48 hr by SRB assay; settings: NCI-H522, 48 h
COLO 205 = experiment: Cytotoxicity against Homo sapiens (human) COLO205 cells after 48 hr by SRB assay; settings: COLO 205, 48 h
NCI-H23 = experiment: Cytotoxicity against Homo sapiens (human) NCI-H23 cells after 48 hr by SRB assay; settings: NCI-H23, 48 h
[11] = Cytotoxicity against Homo sapiens (human) NCI-H322 cells after 48 hr by SRB assay; settings: NCI-H322, 48 h
HOP-92 = experiment: Cytotoxicity against Homo sapiens (human) HOP92 cells after 48 hr by SRB assay; settings: HOP-92, 48 h
EKVX = experiment: Cytotoxicity against Homo sapiens (human) EKVX cells after 48 hr by SRB assay
A549 = experiment: Cytotoxicity against Homo sapiens (human) A549 cells after 48 hr by SRB assay; settings: A549, 48 h
MCF7 [12] = experiment: Cytotoxicity against Homo sapiens (human) MCF7 cells assessed as cellular growth after 48 hr by Alamar blue assay; parameters: concentration or dose not given beside the values

With O=C1CCS/C(=N\S(=O)(=O)c2ccc(N3N=C4c5ccccc5CC4C3c3cccs3)cc2)N1C(=O)c1ccccc1 (stereo not drawn) the GI50 (M14) was 10.8 µM, the GI50 (LOX IMVI) was 7.61 µM and the GI50 (U-251) was 4.5 µM. It also gave a GI50 (Hs-578T) of 2.85 µM, a GI50 (MCF7 [1]) of 9.1 µM and a GI50 (MDA-MB-231) of 5.77 µM. It also gave a GI50 (DU-145) of 23.2 µM, a GI50 (UO-31) of 30.7 µM and a GI50 (RXF 393) of 6.31 µM. The GI50 (CAKI-1) was 26.8 µM, the GI50 (ACHN) was 5.18 µM and the GI50 (786-0) was 14.1 µM. It also gave a GI50 [2] of 32.9 µM, a GI50 (SK-OV-3) of 52.8 µM and a GI50 (OVCAR-8) of 0.81 µM. It also gave a GI50 (OVCAR-5) of 25.8 µM, a GI50 (OVCAR-3) of 27.4 µM and a GI50 (UACC-62) of 6.37 µM. The GI50 (UACC-257) was 0.33 µM, the GI50 (SK-MEL-5) was 2.56 µM and the GI50 (SK-MEL-28) was 50.2 µM. It also gave a GI50 [3] of 25.4 µM, a TGI [3] of 73.5 µM and a GI50 [4] of 17.7 µM. It also gave a TGI [4] of 38.1 µM, a GI50 [5] of 36.9 µM and a TGI [5] of 42.1 µM. It also gave a GI50 [6] of 15.3 µM, a TGI [6] of 21.2 µM and a GI50 [7] of 36.7 µM. The TGI [7] was 68.2 µM, the GI50 [8] was 21.7 µM and the TGI [8] was 71.4 µM. For the same compound, the Activity (NCI-H460) was “<=32%”, the Activity (SF-268 [9]) was “<=32%” and the GI50 (BT-549) was 4.77 µM. For the same compound, the GI50 (T47D) was > 100 µM, the GI50 (SNB-19) was 45.7 µM and the GI50 (SF-539) was 23.8 µM. For the same compound, the GI50 (SF-295) was 32.7 µM, the GI50 (SW-620) was 13.1 µM and the GI50 (SF-268 [10]) was 13.7 µM. It also gave a GI50 (KM12) of 29.4 µM, a GI50 (HCT-15) of 15.1 µM and a GI50 (HT-29) of 39.6 µM. The GI50 (NCI-H522) was 14.4 µM, the GI50 (COLO 205) was 66.5 µM and the GI50 (NCI-H23) was 17.2 µM. The GI50 [11] was 32.5 µM, the GI50 (HOP-92) was 25.4 µM and the GI50 (EKVX) was 22.1 µM. The GI50 (A549) was 10.6 µM and the Activity (MCF7 [12]) was “<=32%”.
